The target of experiment [1] is T1, Signal transducer and activator of transcription 3 (Homo sapiens, UniProt P40763). The experiment in a line: Inhibitory concentration against signal transducer and activator of transcription 3 (stat3) by (EMSA) electrophoretic mobility shift assay.
Experiment [2] deals with T1, Signal transducer and activator of transcription 3. As to the kind of experiment: Inhibitory concentration against signal transducer and activator of transcription 3 (stat3) using 5-carboxyfluoresceinyl-Ala-Tyr(PO3H2)-Leu-Pro-Gln-Thr-Val-NH2 by FP assay.

Molecules are shown by their SMILES. Square brackets hold non-standard residues; d marks the D form. Peptide text beside a SMILES is read from it. pY = N[C@@H](Cc1ccc(OP(=O)(O)O)cc1)C(=O)O; Dip = N[C@H](C(=O)O)C(c1ccccc1)c1ccccc1; NMeL = CN[C@@H](CC(C)C)C(=O)O

T1 sequence (P40763 whole entry): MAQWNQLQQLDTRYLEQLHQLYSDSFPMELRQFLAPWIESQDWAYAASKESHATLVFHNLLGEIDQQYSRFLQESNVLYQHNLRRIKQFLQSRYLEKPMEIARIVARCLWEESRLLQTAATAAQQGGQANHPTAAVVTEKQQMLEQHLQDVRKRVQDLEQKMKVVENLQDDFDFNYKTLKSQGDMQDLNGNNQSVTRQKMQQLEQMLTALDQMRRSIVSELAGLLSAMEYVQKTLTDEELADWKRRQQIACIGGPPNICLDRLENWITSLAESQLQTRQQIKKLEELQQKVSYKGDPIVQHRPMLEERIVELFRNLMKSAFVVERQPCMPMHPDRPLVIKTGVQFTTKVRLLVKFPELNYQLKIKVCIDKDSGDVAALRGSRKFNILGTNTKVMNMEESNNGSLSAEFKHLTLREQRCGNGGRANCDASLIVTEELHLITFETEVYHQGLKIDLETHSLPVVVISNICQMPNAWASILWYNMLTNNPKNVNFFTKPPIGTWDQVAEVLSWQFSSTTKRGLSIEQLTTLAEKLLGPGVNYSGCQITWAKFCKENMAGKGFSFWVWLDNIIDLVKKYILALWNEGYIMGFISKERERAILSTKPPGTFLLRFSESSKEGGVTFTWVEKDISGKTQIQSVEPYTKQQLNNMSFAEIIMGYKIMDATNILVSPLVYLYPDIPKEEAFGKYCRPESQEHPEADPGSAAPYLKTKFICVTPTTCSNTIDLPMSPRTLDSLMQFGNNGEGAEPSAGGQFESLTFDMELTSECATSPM

A word on the IC50: it is the concentration that gives 50% inhibition. `CC(=O)N[C@@H](Cc1ccc(OP(=O)(O)O)cc1)C(=O)N[C@@H](CC(C)C)C(=O)N1CCC[C@H]1C(=O)N[C@@H](CCC(N)=O)C(=O)N[C@H](C(N)=O)[C@@H](C)O`: in experiment [1], the IC50 was 0.6 µM.
Molecule `CC(=O)N[C@@H](Cc1ccc(OP(=O)(O)O)cc1)C(=O)N(C)[C@@H](CC(C)C)C(=O)N1CCC[C@H]1C(=O)N[C@@H](CCC(N)=O)C(=O)N[C@H](C(N)=O)[C@@H](C)O` (Ac-[pY][NMeL]PQT-NH2) had an IC50 in experiment [2] above 100 µM.
Still for that read-out and setting: the result for `CC(=O)N[C@@H](Cc1ccc(OP(=O)(O)O)cc1)C(=O)N[C@@H](CC(C)C)C(=O)N1CCC[C@@H]1C(=O)N[C@@H](CCC(N)=O)C(=O)N[C@H](C(N)=O)[C@@H](C)O` reads above 100 µM.
In the case of `CC(=O)N[C@@H](Cc1ccc(OP(=O)(O)O)cc1)C(=O)N[C@@H](CC(C)C)C(=O)N1CCC[C@H]1C(=O)N[C@@H](CCC(N)=O)C(N)=O` (Ac-[pY]LPQ-NH2), the IC50 in experiment [1] worked out at 1 µM.
For the molecule `CC(=O)N[C@@H](Cc1ccc(OP(=O)(O)O)cc1)C(=O)N[C@H](C(=O)N1CCC[C@H]1C(=O)N[C@@H](CCC(N)=O)C(=O)N[C@H](C(N)=O)[C@@H](C)O)C(c1ccccc1)c1ccccc1` (Ac-[pY][Dip]PQT-NH2), the IC50 in experiment [2] was above 100 µM.

For the origin of these results see ChEMBL document CHEMBL1141127, “Investigation of the binding determinants of phosphopeptides targeted to the SRC homology 2 domain of the signal transducer and activator of transcription 3. Development of a high-affinity peptide inhibitor” (J Med Chem, 2005).
